Data on eleven compounds can be found in ChEMBL document CHEMBL1201862, “PubChem BioAssay data set” (2004).

Calls of active or inactive are those of the source. A value given as a limit tells only on which side of the number the result lay.

Assay [1] in a line: miR-122 activators in hepatoma reporter cells, dose response, cell-based, Huh7 psiCHECK-miR122, Renilla luciferase, cherry-picked (AID 651956).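 Note: huh7 hepatoma cells stably carrying a psiCHECK-2 miR-122 sensor plasmid; renilla luciferase signal reporting endogenous miR-122 activity after 48 h compound exposure.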 It counts as functional.
Assay [2] in a line: HEK293T cytotoxicity, dose response, cytotoxicity control for miR-122 modulator project, cell-based, activator set, cherry-pick (AID 720690).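 Note: HEK293T human cells scored for general mammalian cytotoxicity.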 Type of assay: functional.
Assay [3] deals with T1, Low molecular weight phosphotyrosine protein phosphatase (Homo sapiens, UniProt P24666).
T1 sequence (P24666 whole entry): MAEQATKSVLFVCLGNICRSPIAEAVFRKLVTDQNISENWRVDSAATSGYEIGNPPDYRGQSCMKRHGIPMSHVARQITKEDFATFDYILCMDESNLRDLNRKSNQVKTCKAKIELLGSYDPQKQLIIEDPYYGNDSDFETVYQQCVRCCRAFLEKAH
It counts as functional. The note with it: read-out: IC50_Mean.

Assay [4] addresses T2, Sentrin-specific protease 8 (Homo sapiens, UniProt Q96LD8).
T2 sequence (Q96LD8 whole entry): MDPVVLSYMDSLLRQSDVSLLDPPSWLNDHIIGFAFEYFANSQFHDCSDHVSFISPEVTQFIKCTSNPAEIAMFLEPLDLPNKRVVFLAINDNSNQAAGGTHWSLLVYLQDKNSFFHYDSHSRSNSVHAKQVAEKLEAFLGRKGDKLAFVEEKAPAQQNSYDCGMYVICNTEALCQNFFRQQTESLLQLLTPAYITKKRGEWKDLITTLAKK
Type of assay: functional.

The target in assay [5] is T2, Sentrin-specific protease 8. Type of assay: functional. This is another data set of the same source.
In assay [6] the target is T3, DNA repair protein RAD52 homolog (Homo sapiens, UniProt P43351).
T3 sequence (P43351 whole entry): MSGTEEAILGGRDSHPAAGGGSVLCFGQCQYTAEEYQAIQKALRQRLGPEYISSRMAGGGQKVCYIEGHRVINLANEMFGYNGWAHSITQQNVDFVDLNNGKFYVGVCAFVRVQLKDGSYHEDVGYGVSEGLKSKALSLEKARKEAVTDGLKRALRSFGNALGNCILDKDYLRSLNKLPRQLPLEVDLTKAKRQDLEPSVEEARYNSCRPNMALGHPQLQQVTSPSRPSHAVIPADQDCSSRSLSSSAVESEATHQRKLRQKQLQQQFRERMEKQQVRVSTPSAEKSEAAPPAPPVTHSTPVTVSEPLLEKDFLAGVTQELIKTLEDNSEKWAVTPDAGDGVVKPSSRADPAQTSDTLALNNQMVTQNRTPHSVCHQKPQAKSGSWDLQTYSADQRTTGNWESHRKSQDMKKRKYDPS
It counts as functional, biochemical.

The target of assay [7] is T4, DNA repair and recombination protein RAD54-like (Homo sapiens, UniProt Q92698).
T4 sequence (Q92698 whole entry): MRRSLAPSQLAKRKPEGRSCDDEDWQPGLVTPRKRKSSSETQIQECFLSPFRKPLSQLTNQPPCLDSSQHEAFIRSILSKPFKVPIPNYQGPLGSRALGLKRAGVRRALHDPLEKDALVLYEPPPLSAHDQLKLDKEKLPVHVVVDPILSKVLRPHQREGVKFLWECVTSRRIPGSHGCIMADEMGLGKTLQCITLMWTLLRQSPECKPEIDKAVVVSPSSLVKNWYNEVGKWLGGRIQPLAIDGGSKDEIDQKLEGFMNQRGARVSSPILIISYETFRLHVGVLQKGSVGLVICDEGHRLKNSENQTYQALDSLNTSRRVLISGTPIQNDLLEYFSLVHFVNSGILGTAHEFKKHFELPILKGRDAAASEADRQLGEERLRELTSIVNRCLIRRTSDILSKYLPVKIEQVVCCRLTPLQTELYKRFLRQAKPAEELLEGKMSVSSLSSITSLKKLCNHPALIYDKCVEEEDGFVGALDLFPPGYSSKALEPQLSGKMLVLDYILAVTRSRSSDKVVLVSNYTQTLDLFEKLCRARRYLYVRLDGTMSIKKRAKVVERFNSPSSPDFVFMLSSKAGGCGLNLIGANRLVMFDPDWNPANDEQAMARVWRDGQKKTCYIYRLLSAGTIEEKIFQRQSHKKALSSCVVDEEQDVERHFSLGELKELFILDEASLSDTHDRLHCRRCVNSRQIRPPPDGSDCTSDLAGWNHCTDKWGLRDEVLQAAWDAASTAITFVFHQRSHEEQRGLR
Kind of assay: inhibitors of human RAD54 branch migration, confirmation, biochemical, fluorescence, cherry-picked samples, dose series (AID 651657). It counts as functional.

The target in assay [8] is T5, Microphthalmia-associated transcription factor (Homo sapiens, UniProt O75030).
T5 sequence (O75030 whole entry): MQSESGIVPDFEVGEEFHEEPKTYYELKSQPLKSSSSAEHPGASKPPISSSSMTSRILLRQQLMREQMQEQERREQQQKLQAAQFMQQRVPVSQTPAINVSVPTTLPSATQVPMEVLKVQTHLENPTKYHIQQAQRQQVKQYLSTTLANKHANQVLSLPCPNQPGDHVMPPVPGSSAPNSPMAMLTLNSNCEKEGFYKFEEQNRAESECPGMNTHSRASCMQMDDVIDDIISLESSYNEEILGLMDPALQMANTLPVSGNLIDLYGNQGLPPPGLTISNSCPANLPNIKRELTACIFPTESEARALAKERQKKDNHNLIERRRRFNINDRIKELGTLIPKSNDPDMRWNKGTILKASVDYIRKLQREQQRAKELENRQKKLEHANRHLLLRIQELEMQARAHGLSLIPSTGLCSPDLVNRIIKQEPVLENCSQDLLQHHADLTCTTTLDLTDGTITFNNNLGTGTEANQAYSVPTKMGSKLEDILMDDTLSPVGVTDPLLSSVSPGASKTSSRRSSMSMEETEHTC
Kind of assay: TRPM1 promoter luciferase signal decrease, dose response, MITF inhibitor project, cell-based, SK-MEL-5, cherry-picked, set 3 (AID 493073).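 Note: SK-MEL-5 melanoma cells with luciferase driven by the MITF target TRPM1 promoter.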 It counts as functional.

The target of assay [9] is T6, Hepatocyte nuclear factor 4-alpha (Homo sapiens, UniProt P41235).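 Note: biochemical luminescence-based dose-response counterscreen measuring inhibition of HNF4 dimerization, run alongside a screen for blockers of ABHD5–perilipin-5 interaction; split luciferase complementation of HNF4 fusion proteins in cell lysate measuring dimerization.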
T6 sequence (P41235 whole entry): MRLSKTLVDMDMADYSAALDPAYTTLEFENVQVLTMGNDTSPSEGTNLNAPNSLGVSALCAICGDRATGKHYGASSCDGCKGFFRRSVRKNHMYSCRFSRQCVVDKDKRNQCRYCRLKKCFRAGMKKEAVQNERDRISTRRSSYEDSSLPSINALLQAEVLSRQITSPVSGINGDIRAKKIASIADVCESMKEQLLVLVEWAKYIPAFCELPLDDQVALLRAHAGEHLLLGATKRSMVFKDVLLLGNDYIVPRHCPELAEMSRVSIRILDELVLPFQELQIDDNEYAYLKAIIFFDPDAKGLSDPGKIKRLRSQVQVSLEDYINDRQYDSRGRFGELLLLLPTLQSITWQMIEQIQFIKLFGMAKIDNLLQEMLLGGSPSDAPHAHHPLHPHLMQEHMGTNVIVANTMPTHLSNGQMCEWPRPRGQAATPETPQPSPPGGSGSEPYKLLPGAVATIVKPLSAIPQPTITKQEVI
It counts as functional, cell-based.

A short description of assay [10]: HeLa cell cytotoxicity, dose response, cytotoxicity control for MgcRacGAP inhibitor project (AID 624300). It counts as functional.
In the next assay the target is T7, Protein skinhead-1 (Caenorhabditis elegans, UniProt P34707).
T7 sequence (P34707 whole entry): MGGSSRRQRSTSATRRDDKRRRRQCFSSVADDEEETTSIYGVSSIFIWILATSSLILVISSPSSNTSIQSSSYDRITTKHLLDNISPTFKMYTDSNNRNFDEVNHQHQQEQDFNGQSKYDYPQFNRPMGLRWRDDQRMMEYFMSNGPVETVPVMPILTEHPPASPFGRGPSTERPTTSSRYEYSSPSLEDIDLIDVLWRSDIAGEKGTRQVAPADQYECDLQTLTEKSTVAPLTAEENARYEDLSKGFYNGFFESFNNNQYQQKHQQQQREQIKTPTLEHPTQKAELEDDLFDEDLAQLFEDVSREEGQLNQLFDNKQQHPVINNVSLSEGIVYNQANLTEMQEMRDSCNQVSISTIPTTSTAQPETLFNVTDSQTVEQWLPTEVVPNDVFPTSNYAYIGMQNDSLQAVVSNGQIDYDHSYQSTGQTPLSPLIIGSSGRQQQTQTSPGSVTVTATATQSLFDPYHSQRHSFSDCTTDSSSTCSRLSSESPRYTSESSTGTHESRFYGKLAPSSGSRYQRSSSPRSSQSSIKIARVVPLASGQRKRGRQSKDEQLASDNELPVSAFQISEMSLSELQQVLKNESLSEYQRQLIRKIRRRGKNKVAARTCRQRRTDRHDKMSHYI
Type of assay: functional.

A short description of assay [11]: inhibitors of Vif binding to APOBEC3G peptide, primary screen, biochemical, TR-FRET, GST-Vif 1-94, biotin-A3G peptide, dose response retest (AID 1117319).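 Note: TR-FRET signal of purified GST-Vif binding a biotinylated A3G peptide; inhibitors lower the FRET signal by blocking Vif and A3G binding.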 Type of assay: functional. In general terms: TR-FRET usually uses a lanthanide donor and a delayed reading to cut background.
A further assay addresses Cytochrome P450 3A4 (Homo sapiens, UniProt P08684).
In assay [12] the target is T8, Rac GTPase-activating protein 1 (Homo sapiens, UniProt Q9H0H5).
T8 sequence (Q9H0H5 whole entry): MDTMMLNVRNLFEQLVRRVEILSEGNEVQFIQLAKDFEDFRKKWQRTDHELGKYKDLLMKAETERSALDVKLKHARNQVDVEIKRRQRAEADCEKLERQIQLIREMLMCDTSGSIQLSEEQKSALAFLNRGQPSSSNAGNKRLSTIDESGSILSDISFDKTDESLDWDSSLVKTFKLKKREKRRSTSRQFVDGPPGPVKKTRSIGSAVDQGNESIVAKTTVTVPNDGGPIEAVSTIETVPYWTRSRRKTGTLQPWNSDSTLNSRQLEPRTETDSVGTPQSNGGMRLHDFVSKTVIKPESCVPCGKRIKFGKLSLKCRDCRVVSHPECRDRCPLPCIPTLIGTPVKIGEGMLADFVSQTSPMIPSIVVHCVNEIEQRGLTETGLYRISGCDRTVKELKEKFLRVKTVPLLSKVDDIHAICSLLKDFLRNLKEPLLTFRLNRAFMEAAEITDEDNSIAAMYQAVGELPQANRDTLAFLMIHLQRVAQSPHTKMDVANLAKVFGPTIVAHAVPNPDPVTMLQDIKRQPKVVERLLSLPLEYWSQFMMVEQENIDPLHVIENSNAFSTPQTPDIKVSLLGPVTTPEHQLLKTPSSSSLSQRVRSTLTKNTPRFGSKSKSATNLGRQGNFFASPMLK
Kind of assay: MgcRacGAP GTPase-activating activity inhibitors, confirmation, biochemical, ADP Hunter fluorescence, primary and confirmatory (AID 624330). It counts as functional.

In assay [13] the target is T9, RNA-binding protein pos-1 (Caenorhabditis elegans, UniProt G5EF15).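 Note: purified POS-1 fused to maltose binding protein made in E. coli; potency of compounds blocking POS-1 binding to fluorescent RNA.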
T9 sequence (G5EF15 whole entry): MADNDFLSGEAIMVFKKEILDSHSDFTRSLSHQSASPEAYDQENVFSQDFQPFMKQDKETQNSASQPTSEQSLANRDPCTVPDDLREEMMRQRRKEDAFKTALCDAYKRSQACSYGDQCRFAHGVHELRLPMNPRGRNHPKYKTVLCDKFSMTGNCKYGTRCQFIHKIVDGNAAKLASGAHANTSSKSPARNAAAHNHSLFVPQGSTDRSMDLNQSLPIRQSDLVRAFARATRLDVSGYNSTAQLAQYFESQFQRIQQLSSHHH
Kind of assay: inhibitors of POS-1/mex-3 RNA binding, dose response, biochemical, fluorescence polarization (AID 1964). (In fluorescence polarisation assays a small probe gives low polarisation when free and higher when bound to something large.)

Assay [14] addresses DNA (cytosine-5)-methyltransferase 1 (Homo sapiens, UniProt P26358). Kind of assay: DNMT1 methyltransferase inhibitors, confirmation, biochemical, fluorescent molecular beacon (AID 602386). Type of assay: functional.
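Throughout, for IC50 Mean: Dose-response confirmation assay measuring inhibition of LMPTP enzyme activity by fluorescence intensity read-out.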

Sequence of Cytochrome P450 3A4 (P08684 whole entry): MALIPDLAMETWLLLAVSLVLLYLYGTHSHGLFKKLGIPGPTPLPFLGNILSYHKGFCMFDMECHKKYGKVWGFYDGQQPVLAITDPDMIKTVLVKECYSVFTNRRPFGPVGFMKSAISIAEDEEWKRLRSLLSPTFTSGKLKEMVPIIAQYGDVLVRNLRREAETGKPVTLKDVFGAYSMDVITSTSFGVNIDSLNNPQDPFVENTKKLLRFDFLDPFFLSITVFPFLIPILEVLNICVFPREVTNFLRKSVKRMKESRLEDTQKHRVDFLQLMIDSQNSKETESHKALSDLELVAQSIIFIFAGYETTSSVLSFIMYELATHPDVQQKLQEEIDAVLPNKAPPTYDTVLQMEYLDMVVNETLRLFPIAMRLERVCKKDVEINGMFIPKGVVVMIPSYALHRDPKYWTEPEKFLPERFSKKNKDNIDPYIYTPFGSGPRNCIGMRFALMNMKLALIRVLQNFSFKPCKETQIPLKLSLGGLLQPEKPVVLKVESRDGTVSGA
Sequence of DNA (cytosine-5)-methyltransferase 1 (P26358 whole entry): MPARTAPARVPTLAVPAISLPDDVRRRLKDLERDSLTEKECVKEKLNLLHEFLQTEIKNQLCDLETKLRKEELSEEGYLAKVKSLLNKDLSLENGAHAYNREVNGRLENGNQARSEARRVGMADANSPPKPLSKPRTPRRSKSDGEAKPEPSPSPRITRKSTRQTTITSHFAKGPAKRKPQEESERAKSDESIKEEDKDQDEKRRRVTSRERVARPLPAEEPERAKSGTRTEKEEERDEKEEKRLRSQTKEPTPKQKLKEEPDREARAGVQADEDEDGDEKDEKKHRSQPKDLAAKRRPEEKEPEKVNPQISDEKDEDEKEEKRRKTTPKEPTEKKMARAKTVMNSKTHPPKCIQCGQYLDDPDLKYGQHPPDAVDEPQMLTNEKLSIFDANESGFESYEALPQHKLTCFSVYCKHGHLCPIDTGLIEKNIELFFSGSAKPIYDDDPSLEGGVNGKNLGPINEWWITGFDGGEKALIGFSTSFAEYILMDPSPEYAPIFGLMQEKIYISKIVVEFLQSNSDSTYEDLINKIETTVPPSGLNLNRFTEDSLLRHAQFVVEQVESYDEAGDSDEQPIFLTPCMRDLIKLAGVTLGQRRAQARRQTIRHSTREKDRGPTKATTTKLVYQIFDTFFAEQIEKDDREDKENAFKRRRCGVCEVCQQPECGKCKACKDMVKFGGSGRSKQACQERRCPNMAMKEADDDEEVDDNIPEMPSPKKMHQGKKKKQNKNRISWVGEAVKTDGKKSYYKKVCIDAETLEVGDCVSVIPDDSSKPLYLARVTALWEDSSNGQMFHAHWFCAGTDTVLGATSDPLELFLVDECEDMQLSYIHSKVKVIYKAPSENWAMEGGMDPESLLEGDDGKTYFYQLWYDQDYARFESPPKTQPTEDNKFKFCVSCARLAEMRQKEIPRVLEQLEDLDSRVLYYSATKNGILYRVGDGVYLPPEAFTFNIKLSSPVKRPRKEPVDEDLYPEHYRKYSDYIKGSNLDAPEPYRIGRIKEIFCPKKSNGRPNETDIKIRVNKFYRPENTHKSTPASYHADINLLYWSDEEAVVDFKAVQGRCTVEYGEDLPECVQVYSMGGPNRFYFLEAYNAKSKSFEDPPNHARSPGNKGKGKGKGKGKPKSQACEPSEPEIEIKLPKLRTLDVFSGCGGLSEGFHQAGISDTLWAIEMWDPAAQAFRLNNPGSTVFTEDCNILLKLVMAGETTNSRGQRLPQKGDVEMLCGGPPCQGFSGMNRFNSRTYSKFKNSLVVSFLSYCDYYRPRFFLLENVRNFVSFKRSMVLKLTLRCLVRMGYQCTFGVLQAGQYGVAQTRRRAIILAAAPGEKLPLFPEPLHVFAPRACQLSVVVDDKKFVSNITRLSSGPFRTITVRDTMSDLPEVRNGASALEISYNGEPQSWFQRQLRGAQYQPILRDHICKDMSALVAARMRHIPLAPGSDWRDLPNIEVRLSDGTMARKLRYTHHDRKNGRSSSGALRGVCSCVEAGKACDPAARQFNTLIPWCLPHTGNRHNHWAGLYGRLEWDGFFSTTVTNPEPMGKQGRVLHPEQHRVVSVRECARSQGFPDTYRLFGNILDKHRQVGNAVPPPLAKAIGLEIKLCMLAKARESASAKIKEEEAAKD

As usually defined, the AC50 is the midpoint of the concentration-response curve, whichever way the signal moves. In the case of `C[C@H]1CN([C@@H](C)CO)C(=O)c2cc(NC(=O)Nc3ccc(C(F)(F)F)cc3)ccc2O[C@H]1CN(C)CC1CCCCC1`, the AC50 was 8.8 µM (active) in assay [1] and 18.7 µM (active) in [2].

Consider `O=c1cc(CN2CCCCCCC2)c2ccccc2o1`, for which the IC50 in assay [3] is 41.5 µM (inactive). Turning to `O=C(O)/C=C/C(=O)Nc1ccc(O)cc1`, the results for the IC50 in [4] and in [5] were 10.6 µM (active) and 16.2 µM (active), respectively. As to `Cc1ccc(-c2nc(C(=O)NCCCN(C)C)cc3c2[nH]c2ccccc23)cc1`, the AC50 is 2.77 µM (active) in assay [6], 10.9 µM (active) in assay [7] and 11.2 µM (active) in assay [8].

Regarding `CCCCCNC(=O)C(c1ccc(OC)cc1)n1c(=O)c(-c2ccco2)nc2ccccc21` (stereo unspecified), the IC50 in [9] is 3.07 µM (active). A word on the CC50: it is the concentration at which the toxic effect on the cells reaches its halfway point. As to `CC1CCCCN1Cc1c(O)ccc2c(O)c(-c3nc4ccccc4s3)c(=N)oc12` (stereo unspecified), the CC50 in assay [10] was 93.1 µM (active). In addition, the IC50 on Protein skinhead-1 was 4.74 µM (active). Turning to `CN1CCN(c2nc(-c3cccnc3)nc3ccccc23)CC1`, the AC50 in assay [7] is 21.1 µM (active); at Cytochrome P450 3A4, 25.1 µM (inconclusive). Further, the IC50 in assay [11] is > 100 µM (active). Consider `c1ccc(Nc2cc(Nc3ccccc3)[nH]n2)cc1`, for which the CC50 in assay [10] was 100 µM (active). In assay [12], the IC50 was 50.9 µM (active).

The term EC50 denotes the concentration at which the effect is half-maximal. As to `O=C1NC(=S)N(c2ccccc2)C(=O)/C1=C/c1ccco1`, the EC50 in assay [13] is 32.7 µM (active). For the same compound, the IC50 was 8.35 µM (active) in [12] and 0.811 µM (active) in [14].

On to `N=c1c(C(=O)NCc2ccco2)cc2c(=O)n3ccccc3nc2n1Cc1ccccc1`, for which the IC50 in [3] was 28.4 µM (inactive). With `Cc1cccc(C)c1OCc1cn(CC(=O)c2ccc(O)cc2)nn1`, the IC50 in [9] is 4.78 µM (active).
